Here are results for 5 compounds from US8088796B2, “Triamine derivative” (Daiichi Sankyo Company, Limited, priority 2005, dated 2012).

One series addresses T1, human FXa (Homo sapiens, UniProt P00742).
T1 construct: purchased Enzyme Research Laboratories, Inc
Nature of the series: Determination of human FXa inhibitory effect (IC50 value). Format: biochemical. Particulars: substrate S-2222, absorbance at 405 nm, room temperature, read-out: FXaIC50. The method, then: Determination of Human FXa Inhibitory Effect (IC50 Value)
To each well of a 96-well microplate, 10 μl of 5% DMSO solutions of each test compound, the concentrations of which were appropriately prepared stepwise, 40 μl of Tris buffer (100 mM Tris, 200 mM potassium chloride, 0.2% BSA, pH 7.4) and 10 μl of 0.0625 U/ml human FXa (Enzyme Research Laboratories, Inc. dissolved and diluted with Tris buffer) were added, and 40 μl of a 750 μM aqueous solution of S-2222 (Chromogenix Co.) was added. Absorbance at 405 nm was measured for 10 minutes at room temperature to determine an increase in absorbance (ΔOD/min). As a control, Tris buffer was used in place of the test compound.
The rate of inhibition (%) at the final concentration of the test compound calculated using the following equation and the final concentration of the test compound were plotted as ordinate and as abscissa, respectively on a logarithmic normal probability paper, to determine the 50% inhibition dose (IC^50 value). Rate of inhibition (%)=(1−(ΔOD/min) of test compound[…](ΔOD/min) of control)×100

The subject of another series is Human blood plasma. Nature of the series: Determination of prothrombin time (PT). In kind it is biochemical. Particulars: concentration at which PT is doubled, Thromboplastin C Plus, linear regression. The method, then:
Determination of Prothrombin Time (PT)
Human blood plasma (50 μl) was added to 50 μl of each test compound dissolved in 4% DMSO/physiological saline, and the mixture was pre-incubated at 37° C. for 1 minute. Subsequently, 100 μl of 0.5 U/ml Thromboplastin C Plus (Dade Behring) was added to initiate the reaction. The coagulation time was measured using Amelung KC-10A micro coagulometer (MC Medical). As a control, 4% DMSO/physiological saline was used in place of the test compound. The concentration at which PT is doubled (PTCT2) was calculated by linear regression.

The nature of series [1]: Test for oral administration (plasma concentration). In kind it is in vivo. The conditions noted are these: 1 mg/kg, monkey, fasted, 1 mg/2 mL/kg as free form in 0.5% methyl cellulose, plasma 0.5-24 h, HPLC/MS/MS. On the procedure:
Test for Oral Administration
To a monkey which had been fasted for over 15 hours, each test compound was orally administered in a free form at a dose of 1 mg/2 mL/kg. The test compound was dissolved or suspended in a 0.5% methyl cellulose solution. Before and 0.5, 1, 2, 4, 8 and 24 hours after the administration, the blood was collected at a ratio of 9 volumes to 1 volume of […] (total 1 ml). The blood was centrifuged (3000 rpm, 10 minutes, 4° C.), and the plasma was collected by separation. The separated plasma was pre-treated, and was subjected to measurement with HPLC/MS/MS, to calculate the plasma concentration from the areas under peak of the internal standard material and the test compound given by SRM chromatography using a calibration curve.

Counter-ions that a name gives are not always drawn.

T1 sequence (P00742 235-488 limits assumed): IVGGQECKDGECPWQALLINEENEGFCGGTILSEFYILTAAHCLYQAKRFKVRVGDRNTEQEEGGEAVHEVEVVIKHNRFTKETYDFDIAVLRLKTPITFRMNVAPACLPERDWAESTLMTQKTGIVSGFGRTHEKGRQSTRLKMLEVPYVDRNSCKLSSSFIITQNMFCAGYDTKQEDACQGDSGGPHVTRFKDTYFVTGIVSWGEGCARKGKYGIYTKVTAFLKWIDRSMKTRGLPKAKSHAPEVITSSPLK
T1 sequence (P00742 41-179 partner limits assumed): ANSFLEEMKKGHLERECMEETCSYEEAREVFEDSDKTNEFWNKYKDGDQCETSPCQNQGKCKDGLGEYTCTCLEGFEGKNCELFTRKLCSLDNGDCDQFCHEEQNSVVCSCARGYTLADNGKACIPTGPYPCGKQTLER

Consider `COCC(=O)N1CC[C@H](NC(=O)C(=O)Nc2ccc(Cl)cn2)[C@H](NC(=O)c2nc3c(s2)CN(C)CC3)C1.Cl` [Compound A, N^1-(5-chloropyridin-2-yl)-N^2-((3R,4S)-1-(2-methoxyacetyl)-3-{[(5-methyl-4,5,6,7-tetrahydrothiazolo[5,4-c]pyridin-2-yl)carbonyl]amino}piperidin-4-yl)ethanediamide hydrochloride, reference compound], for which the IC50 at human FXa came out at 2.3 nM. For the same compound, in the series on Human blood plasma, the PTCT2 is 0.37 µM. In series [1], this compound came in with an AUC of 157 ng·h/mL.

As to `CN1CCc2nc(C(=O)N[C@@H]3CN(C=O)CC[C@@H]3NC(=O)C(=O)Nc3ccc(Cl)cn3)sc2C1` [Example 8, N^1-(5-chloropyridin-2-yl)-N^2-((3R,4S)-1-formyl-3-{[(5-methyl-4,5,6,7-tetrahydrothiazolo[5,4-c]pyridin-2-yl)carbonyl]amino}piperidin-4-yl)ethanediamide hydrochloride], at human FXa, the IC50 was 2.2 nM. The PTCT2 in the series on Human blood plasma stood at 0.26 µM. Besides, in series [1], the exposure (AUC) came out at 826 ng·h/mL.

Take `CC(=O)N1CC[C@H](NC(=O)C(=O)Nc2ccc(Cl)cn2)[C@H](NC(=O)c2nc3c(s2)CN(C)CC3)C1` [Example 9, N^1-((3R,4S)-1-acetyl-3-{[(5-methyl-4,5,6,7-tetrahydrothiazolo[5,4-c]pyridin-2-yl)carbonyl]amino}piperidin-4-yl)-N^2-(5-chloropyridin-2-yl)ethanediamide hydrochloride]: the IC50 on human FXa is 1.6 nM. Moreover, the PTCT2 in the series on Human blood plasma is 0.25 µM. The same compound displayed an AUC in series [1] of 482 ng·h/mL.

As to `CN1CCc2nc(C(=O)N[C@@H]3CN(C=O)CC[C@@H]3NC(=O)C(=O)Nc3ccc(Cl)s3)sc2C1` [Example 23, N^1-(5-chlorothiophen-2-yl)-N^2-((3R,4S)-1-formyl-3-{[(5-methyl-4,5,6,7-tetrahydrothiazolo[5,4-c]pyridin-2-yl)carbonyl]amino}piperidin-4-yl)ethanediamide hydrochloride], at human FXa, the IC50 was 0.9 nM. Further, in the series on Human blood plasma, the PTCT2 stood at 0.14 µM. In series [1], the AUC was 899 ng·h/mL.

As to `O=CN1CC[C@H](NC(=O)C(=O)Nc2ccc(Cl)cn2)[C@H](NC(=O)c2nc3c(s2)COCC3)C1` [Example 38, N^1-(5-chloropyridin-2-yl)-N^2-((3R,4S)-3-{[(6,7-dihydro-4H-pyrano[4,3-d]thiazol-2-yl)carbonyl]amino}-1-formylpiperidin-4-yl)ethanediamide], the IC50 on human FXa came out at 3 nM. Moreover, in the series on Human blood plasma, the PTCT2 is 0.50 µM. Besides, the AUC in series [1] amounted to 880 ng·h/mL.

As usually defined, the AUC is concentration integrated over time.
